From PMC4113456, “Atypical Signaling and Functional Desensitization Response of MAS Receptor to Peptide Ligands” (PLoS ONE, 2014) come the findings set out here.

The structures appear in SMILES notation.

For this assay, the target named is T1, MAS (Homo sapiens, UniProt P04201).
T1 construct: expressed in transfected cells
T1 sequence (P04201 1-325): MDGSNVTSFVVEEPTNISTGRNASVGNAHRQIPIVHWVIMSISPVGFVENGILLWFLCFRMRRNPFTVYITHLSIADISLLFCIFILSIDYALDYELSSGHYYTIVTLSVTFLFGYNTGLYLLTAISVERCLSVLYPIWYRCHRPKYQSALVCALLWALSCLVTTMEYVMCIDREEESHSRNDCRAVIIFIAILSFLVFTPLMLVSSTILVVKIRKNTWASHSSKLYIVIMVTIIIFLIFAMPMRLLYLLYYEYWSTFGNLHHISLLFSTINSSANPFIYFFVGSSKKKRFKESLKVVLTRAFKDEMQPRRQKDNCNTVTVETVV
The assay can be described thus: Calcium re-stimulation and antagonism assays, MAS expressing stable cells. The assay is classed as cell-based. As for the experimental part:
The assay was performed using FLIPR Calcium 5 assay kit (Molecular Devices, Sunnyvale, CA). For calcium measurements, cells at a density of 125,000 cells/well in 100 µl medium were seeded onto a 96-well clear bottom black cell culture plate that was pre-coated with poly-L-lysine. In the calcium assays the cell density of 125,000 cells/well was consistently maintained to minimize variability between independent experiments. The cells were seeded in induction media to induce MAS expression or in complete media for negative controls. The plate was maintained in a cell culture incubator for 26–28 h. The cells were then serum starved for 2 h by replacing the medium with 100 µl of serum free DMEM. In the case of pre-treatment with pan-inhibitor of G protein signaling, BIM-46187, the cells were initially serum starved for 1 h by replacing the medium with 50 µl of serum free DMEM. After 1 h, 50 µl of BIM-46187 was added to the cells to a final concentration of 25 µM and treated for another 1 h. Following serum starvation, 100 µl of calcium sensitive dye along with 2x (2.5 mM final concentration) probenecid (Life Technologies, Grand Island, NY) was added to the cells. During this step, AR-inverse agonist or BIM-46187 was also added at desired concentrations to the calcium dye preparation in case of experiments where cells were pre-treated with these inhibitors. The cells were maintained for one hour in the cell culture incubator. […] The instrument was programmed in FLEX mode to add ligands (50 µl at 5x concentration) to the cells and to monitor the fluorescence before and after adding the ligands. […]
For re-stimulation assays, the data is expressed as the percentage of maximum agonist stimulation to allow for ready comparison between individual experiments. For the IP1 assay, a standard curve was generated using the 4-Parameter logistic equation fit of the HTRF readings of IP1 standards using the SoftMax Pro software. […] In the luciferase assay, the luminescence measurements (RLU) are presented as a ratio of firefly to renilla luciferase activity. […]

On to `COc1cc([N+](=O)[O-])ccc1S(=O)(=O)N1CC(CN2CCN(c3ccccn3)CC2)C(c2cccc(F)c2)C1` (stereo not drawn) [AR-agonist], for which, under “re-stimulation assay, second ligand at 600 s”, the “Response to second agonist (NPFF or AR-agonist) after first stimulation with the ligand” value is reported as “did not respond”. As to `C=CCCN1CCC2(CC1)CN(C(=O)c1c(F)cccc1F)c1ccc(Cl)cc12` [AR-inverse], under “first ligand at 25 µM, then NPFF”, the “Inhibition of NPFF calcium response” value is “completely inhibited”. For the same compound, the “Inhibition of AR-agonist calcium dose-response by pre-treatment” value (pre-treatment at 25 µM) is listed as “complete inhibition”.
